Each block holds one substance with its values, some of them ahead of it. Ends that are not written are not given here.
Key:
[1] = test system: mouse neuroblastoma (Neuro2a) cells; test: Cell viability by WST-8 method after addition of incubated reaction solutions (Example B6); assay type: cell-based; conditions: reaction solution containing only the aggregation inhibiting peptide
Method: Then, reaction solutions with the following compositions were prepared using these solutions. The reaction solutions were incubated at 37° C. for 24 hours.
Meanwhile, 0.15 mL of medium per well was placed in the wells of a 96-well plate, and mouse neuroblastoma (Neuro2a) cells were seeded to be 2.66×10^4 cells per well. After incubation at 37° C. for 24 hours, 50 μL of each reaction solution after the incubation was added per well and further incubated at 37° C. for 24 hours. The cell viability (%) was then measured for each well by the WST-8 method.

[2] = Solubility in aqueous solvent, visual check for precipitation; assay type: physicochemical; conditions: room temperature
Method: For each of the example peptides (Syn FPs) and the comparative example peptides, a 1 mmol/L peptide solution was prepared using MilliQ water as an aqueous solvent.
Each peptide was dissolved in a saline solution to prepare a 1 mmol/L sample solution.

Syn61-84 = Syn61-84 (Homo sapiens, UniProt P37840); test: Inhibition of aggregate formation of Syn61-84, ThT fluorescence (Example B2); assay type: biochemical
Method: Specifically, reaction solutions with the following compositions were prepared and each dispensed into wells such that the amount of the reaction solution per well was 200 μL. In the following compositions, X mmol/L peptides (aggregation inhibiting peptide solutions: YS-11 and LYZA-3) were prepared using MilliQ water, and the concentration X mmol/L was set to 1 μmol/L, […], and 100 μmol/L in the reaction solutions. […] After the reaction solutions were incubated at 37° C. for 24 hours, 10 μL of 2 mmol/L ThT was added per well, and the fluorescence intensity was measured using a measurement device (product name: Cytation5, manufactured by BioTek) (n=3). The measurement wavelengths were set such that the excitation wavelength (ex) was 444 nm and the fluorescence wavelength (em) was 480 nm. As a control, a reaction solution to which water was added instead of the aggregation inhibiting peptides (YS-11 and LYZA-3) was also measured in the same way.

Syn61-84 aggregates = Syn61-84 aggregates (Homo sapiens, UniProt P37840); test: Dissociation of Syn61-84 aggregates, ThT fluorescence (Example B3); assay type: biochemical; conditions: peptide 0.1, 1, 10, 100 μmol/L; 0.1 mM preformed Syn61-84 aggregates; 37° C. 24 hours
Method: Then, reaction solutions with the following compositions were prepared and each dispensed into wells such that the amount of the reaction solution per well was 200 μL, and, after the reaction solutions were incubated at 37° C. for 24 hours, 10 μL of 2 mmol/L ThT was added per well, and the fluorescence intensity was measured using a measurement device (product name Cytation5, manufactured by BioTek) (n=3). The measurement wavelengths were set such that the excitation wavelength (ex) was 444 nm and the fluorescence wavelength (em) was 480 nm. In the following compositions, X mmol/L peptides (aggregation inhibiting peptides: YS-11 and LYZA-3) were prepared using MilliQ water, and the concentration X mmol/L was set to 0.1 μmol/L, 1 μmol/L, 10 μmol/L, and 100 μmol/L in the reaction solutions. As a control, a reaction solution to which water was added instead of the peptide YS-11 and the peptide LYZA-3 was also measured in the same way.

[3] = test system: Parkinson's disease model mice; test: Y-maze test in Parkinson's disease model mice produced with Syn61-84 (Example B4); assay type: in vivo; conditions: Day 74; 4 μL of 1 mmol/L inhibiting peptide on Day 56 to Syn61-84 mice
Method: (§1) As a control, a saline solution (Saline) was used.
(§2) The aggregation inhibiting peptide was not administered to the Saline administration group (n=3).
(§3) The short-term memory was evaluated through a Y-maze test on Day 14, Day 56, and Day 74, and the motor function was evaluated through a Rota-Rod test on Day 21, Day 55, Day 63, and Day 70. […] The Rota-Rod test was conducted using a rotor-rod device for mice (product name: MK-670, manufactured by Muromachi Kikai Co., Ltd.), with the rotational speed of the rotor set at 10 or 20 rpm, and the time until a mouse on the rotating rotor fell was measured.

[4] = test system: Parkinson's disease model mice; test: Rota-Rod test in Parkinson's disease model mice produced with Syn61-84 (Example B4); assay type: in vivo
Method: as §1, §2, §3

Substance: RETLVYLTHLD [YS-11]
cell viability (control taken as 100%) [1]: no effect on the cell viability

solubility (visual precipitation) ([2]; 1 mmol/L in saline solution): No precipitation
Substance: VVTGVTAVAQKTVEG [Syn70-84, reference compound]

fluorescence intensity (ThT) compared with the control (Syn61-84), dissociation of aggregates (Syn61-84 aggregates): fluorescence intensity decreased
Substance: YSNFNTDY (aggregation inhibitor peptide) [LYZA-3]
aggregation inhibition ability compared at the same concentration (formation of aggregates) (Syn61-84; comparison between FIGS. 4(A) and 4(B)): greater aggregation inhibition ability than the peptide YS-11
fluorescence intensity (ThT) compared with the control (Syn61-84) (Syn61-84; peptide 1 μmol/L, 100 μmol/L, 0.1 mM Syn61-84, 37° C. 24 hours): decreased in a concentration-dependent manner
alternation rate (Y-maze) compared with Saline administration group [3]: increase in the alternation rate
spent time (Rota-Rod) at 10 rpm ([4]; 10 rpm, RR-3 and RR-4 after inhibiting peptide on Day 56): significant increase
spent time (Rota-Rod) at 10 rpm versus Saline administration group ([4]; 10 rpm, RR-4): longer than that of the Saline administration group
spent time (Rota-Rod) ([4]; RR-3 and RR-4, after inhibiting peptide on Day 56 to Syn61-84 mice): increase in the spent time

Substance: α-synuclein [full-length Syn]
solubility (visual precipitation) ([2]; 1 mmol/L in MilliQ water): precipitation of Syn was immediately visible
